Experiments:
rape = assay: Test B pre/postemergence rape; format: in vivo, Brassica napus
Procedure, shortened: (§1)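 Response is a visual 0-to-10 score relative to untreated plants, where 0 means no effect and 10 means complete control, taken twelve to sixteen days after application. Treatments went onto soil at planting and onto foliage of 1- to 4-leaf plants, using a surfactant-containing non-phytotoxic solvent.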

sugar beet = assay: Test B pre/postemergence sugar beet; format: in vivo, Beta vulgaris
Procedure, shortened: as §1

purple nutsedge = assay: Test B pre/postemergence purple nutsedge; format: in vivo, Cyperus rotundus
Procedure, shortened: as §1

duck salad = assay: Test B flood test duck salad; format: in vivo, Heteranthera limosa
Procedure, shortened: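 Read-out is a visual response score from 0 (no effect) to 10 (complete control), assigned by comparison with untreated controls. Treatment was applied at the 2-leaf stage, and plants stayed in the greenhouse for twelve to sixteen days before scoring.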

bermuda-grass = assay: Test D bermudagrass; format: in vivo, Cynodon dactylon; conditions: Preemergence, 0 to 100 scale
Procedure, shortened: (§2)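 Visual injury ratings, 0 = no injury to 100 = complete control, taken 14 to 21 days after treatment. Test chemicals were in a surfactant-containing non-phytotoxic solvent; preemergence treatments went onto the sandy loam surface of seeded greenhouse pots within one day of sowing.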

common ragweed = assay: Test D common ragweed; format: in vivo, Ambrosia elatior; conditions: Preemergence, 0 to 100 scale
Procedure, shortened: as §2

winter wheat [1] = assay: Test E winter wheat; format: in vivo, Triticum aestivum; conditions: Postemergence
Procedure, shortened: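 Compound formulated with surfactant in a non-phytotoxic solvent (postemergence: young 1- to 4-leaf plants); held in greenhouse approx. 21–28 days; visual assessment against untreated plants.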

blackgrass = assay: Test E blackgrass; format: in vivo, Alopecurus myosuroides; conditions: Preemergence
green foxtail = assay: Test E green foxtail; format: in vivo, Setaria viridis; conditions: Preemergence
Italian ryegrass = assay: Test E Italian ryegrass; format: in vivo, Lolium multiflorum; conditions: Preemergence
winter wheat [2] = assay: Test E winter wheat; format: in vivo, Triticum aestivum; conditions: Preemergence
wild oat = assay: Test E wild oat; format: in vivo, Avena fatua; conditions: Preemergence, 0 to 100 scale where 0 is no effect and 100 is complete control
winter barley = assay: Test E winter barley; format: in vivo, Hordeum vulgare; conditions: Preemergence
[3] = Postemergence, Rate 125 g/ha, scale of 0 to 10 where 0 is no effect and 10 is complete control
[4] = Postemergence, Rate 250 g/ha, scale 0 to 10, 0 no effect, 10 complete control
[5] = Preemergence, Rate 62 g/ha, scale 0 to 10 (0 no effect, 10 complete control)
[6] = Preemergence, Rate 125 g/ha, scale 0 to 10 (0 no effect, 10 complete control)
[7] = Preemergence, Rate 250 g/ha, scale of 0 to 10 where 0 is no effect and 10 is complete control
[8] = Preemergence, Rate 500 g/ha, scale 0 to 10 (0 no effect, 10 complete control)
[9] = Rate 62 g/ha, Postemergence, scale of 0 to 10 where 0 is no effect and 10 is complete control
[10] = Rate 500 g/ha, Postemergence, scale 0 to 10, 0 no effect, 10 complete control
[11] = flood test, listed under Postemergence, Rate 250 g/ha, scale 0 to 10, 0 no effect, 10 complete control
[12] = Rate 16 g/ha, 0 no injury, 100 complete control
[13] = Rate 32 g/ha, 0 no injury, 100 complete control
[14] = Rate 64 g/ha, 0 no injury, 100 complete control
[15] = Rate 125 g/ha, 0 no injury, 100 complete control
[16] = Rate 250 g/ha, 0 to 100 scale (0 no effect, 100 complete control)
[17] = Rate 500 g/ha, 0 to 100 scale, 0 no effect, 100 complete control
[18] = Rate 500 g/ha, 0 to 100 scale where 0 is no effect and 100 is complete control
[19] = Rate 1000 g/ha, 0 to 100 scale where 0 is no effect and 100 is complete control
[20] = Postemergence, Rate 62 g/ha, scale 0 to 10, 0 is no effect, 10 is complete control
[21] = Preemergence, Rate 62 g/ha, scale 0 to 10, 0 is no effect, 10 is complete control
[22] = Preemergence, Rate 500 g/ha, scale 0 (no effect) to 10 (complete control)
[23] = Rate 125 g/ha, Postemergence, scale 0 to 10, 0 no effect, 10 complete control
[24] = Rate 500 g/ha, Postemergence, 0 to 10 scale (0 no effect, 10 complete control)

## CC(C)N(C(=O)n1oc(=O)n(C2CCCCC2)c1=O)c1ccc(F)cc1F [Compound 115]
rape; [3]
  Rape plant response rating: 0
rape; [4]
  Rape plant response rating: 0
rape; [5]
  Rape plant response rating: 0
rape; [6]
  Plant response rating, Rape: 0
rape; [7]
  Plant response rating, Rape: 0
rape; [8]
  Rape plant response rating: 5
rape; [9]
  Rape plant response rating: 0
rape; [10]
  Rape plant response rating: 0
Sugar beet; [3]
  Sugarbeets plant response rating: 3
Sugar beet; [5]
  Sugarbeets plant response rating: 0
Sugar beet; Preemergence, Rate 125 g/ha, 0 is no effect, 10 is complete control
  Sugarbeets plant response rating (0 to 10 scale): 0
Sugar beet; [7]
  Plant response rating, Sugarbeets: 0
Sugar beet; [8]
  Sugarbeets plant response rating: 5
Sugar beet; [9]
  Sugarbeets plant response rating: 2
Sugar beet; Rate 250 g/ha, Postemergence, scale 0 to 10, 0 is no effect, 10 is complete control
  Plant response rating, Sugarbeets: 3
Sugar beet; [10]
  Sugarbeets plant response rating: 3
Purple nutsedge; [3]
  Nutsedge plant response rating: 0
Purple nutsedge; [4]
  Nutsedge plant response rating: 0
Purple nutsedge; [5]
  Nutsedge plant response rating: 0
Purple nutsedge; [6]
  Plant response rating, Nutsedge: 0
Purple nutsedge; [7]
  Plant response rating, Nutsedge: 0
Purple nutsedge; [8]
  Nutsedge plant response rating: 0
Purple nutsedge; [9]
  Nutsedge plant response rating: 0
Purple nutsedge; [10]
  Nutsedge plant response rating: 0
Duck salad; Postemergence (flood test species), Rate 125 g/ha, scale of 0 to 10 where 0 is no effect and 10 is complete control
  Ducksalad plant response rating: 0
Duck salad; Rate 62 g/ha, Postemergence section, flood test species, scale of 0 to 10 where 0 is no effect and 10 is complete control
  Ducksalad plant response rating: 0
Duck salad; Rate 500 g/ha, listed under Postemergence (flood test species), scale 0 to 10, 0 no effect, 10 complete control
  Ducksalad plant response rating: 0
Duck salad; [11]
  Ducksalad plant response rating: 0
bermuda-grass; [12]
  Plant response rating, Bermudagrass: 75
bermuda-grass; [13]
  Plant response rating, Bermudagrass: 98
bermuda-grass; [14]
  Plant response rating, Bermudagrass: 98
bermuda-grass; [15]
  Plant response rating, Bermudagrass: 100
bermuda-grass; Rate 250 g/ha
  Plant response rating, Bermudagrass: 100
bermuda-grass; Rate 500 g/ha
  Plant response rating, Bermudagrass: 100
Common ragweed; [12]
  Plant response rating, C. ragweed: 0
Common ragweed; [13]
  Plant response rating, C. ragweed: 0
Common ragweed; [14]
  Plant response rating, C. ragweed: 0
Common ragweed; [15]
  Plant response rating, C. ragweed: 10
Common ragweed; Rate 250 g/ha
  Plant response rating, C. ragweed: 20
Common ragweed; Rate 500 g/ha
  Plant response rating, C. ragweed: 20
Winter wheat [1]; [16]
  Plant response rating, Wheat (winter): 10
Winter wheat [1]; Rate 1000 g/ha, 0 to 100 scale, 0 is no effect and 100 is complete control
  Plant response rating, Wheat (winter): 40
Winter wheat [1]; [17]
  Plant response rating, Wheat (winter): 20
blackgrass; Rate 250 g/ha, 0 to 100 scale
  Plant response rating, Blackgrass: 30
blackgrass; [18]
  Plant response rating, Blackgrass: 50
blackgrass; [19]
  Plant response rating, Blackgrass: 60
Green foxtail; Rate 250 g/ha, 0 to 100 scale
  Plant response rating, Green foxtail: 65
Green foxtail; [18]
  Plant response rating, Green foxtail: 70
Green foxtail; [19]
  Plant response rating, Green foxtail: 90
Italian ryegrass; Rate 250 g/ha, 0 to 100 scale
  Plant response rating, I. Ryegrass: 45
Italian ryegrass; [18]
  Plant response rating, I. Ryegrass: 50
Italian ryegrass; [19]
  Plant response rating, I. Ryegrass: 80
Winter wheat [2]; Rate 250 g/ha, 0 to 100 scale
  Plant response rating, Wheat (winter): 5
Winter wheat [2]; [18]
  Plant response rating, Wheat (winter): 10
Winter wheat [2]; [19]
  Plant response rating, Wheat (winter): 20
Wild oat; Rate 500 g/ha
  Plant response rating, Wild oat: 50
Wild oat; Rate 1000 g/ha
  Plant response rating, Wild oat: 60
Winter barley; Rate 250 g/ha, 0 to 100 scale
  Plant response rating, Barley (winter): 10
Winter barley; [18]
  Plant response rating, Barley (winter): 20
Winter barley; [19]
  Plant response rating, Barley (winter): 30

## Cc1cccc(C)c1-n1c(=O)on(C(=O)N(c2ccc(F)cc2)C(C)C)c1=O [Compound 18]
rape; [20]
  Rape plant response rating: 0
rape; [4]
  Rape plant response rating: 0
rape; [21]
  Plant response rating, Rape: 0
rape; [6]
  Plant response rating, Rape: 0
rape; [7]
  Plant response rating, Rape: 0
rape; [22]
  Rape plant response rating: 2
rape; [23]
  Rape plant response rating: 0
rape; [24]
  Rape plant response rating: 1
Sugar beet; [20]
  Sugarbeets plant response rating: 0
Sugar beet; [4]
  Sugarbeets plant response rating: 0
Sugar beet; [21]
  Plant response rating, Sugarbeets: 0
Sugar beet; [6]
  Plant response rating, Sugarbeets: 0
Sugar beet; [7]
  Plant response rating, Sugarbeets: 2
Sugar beet; [22]
  Sugarbeets plant response rating: 4
Sugar beet; [23]
  Sugarbeets plant response rating: 0
Purple nutsedge; [20]
  Nutsedge plant response rating: 0
Purple nutsedge; [4]
  Nutsedge plant response rating: 0
Purple nutsedge; [21]
  Plant response rating, Nutsedge: 0
Purple nutsedge; [6]
  Plant response rating, Nutsedge: 0
Purple nutsedge; [7]
  Plant response rating, Nutsedge: 0
Purple nutsedge; [22]
  Nutsedge plant response rating: 0
Purple nutsedge; [23]
  Nutsedge plant response rating: 0
Purple nutsedge; [24]
  Nutsedge plant response rating: 0
Duck salad; [20]
  Ducksalad plant response rating: 0
Duck salad; Rate 62 g/ha, headed Pre-emergence (flood test species), scale 0 to 10 (0 no effect, 10 complete control)
  Ducksalad plant response rating: 0
Duck salad; Rate 125 g/ha, Postemergence section (flood test species), scale 0 to 10, 0 no effect, 10 complete control
  Ducksalad plant response rating: 7
Duck salad; Rate 125 g/ha, Pre-emergence, flood test species, scale 0 to 10 where 0 is no effect and 10 is complete control
  Ducksalad plant response rating: 0
Duck salad; Rate 250 g/ha, headed Pre-emergence (flood test species), scale 0 to 10 (0 no effect, 10 complete control)
  Ducksalad plant response rating: 0
Duck salad; Rate 500 g/ha, Postemergence section of Table B, 0 to 10 scale (0 no effect, 10 complete control)
  Ducksalad plant response rating: 7
Duck salad; Rate 500 g/ha, headed Pre-emergence (flood test species), scale 0 to 10 (0 no effect, 10 complete control)
  Plant response rating, Ducksalad: 1
Duck salad; Rate 1000 g/ha, Pre-emergence (as headed), scale 0 to 10
  Ducksalad plant response rating: 0
Duck salad; Rate 2000 g/ha, Pre-emergence (as headed), scale 0 to 10
  Ducksalad plant response rating: 0
Duck salad; [11]
  Ducksalad plant response rating: 7
bermuda-grass; [12]
  Plant response rating, Bermudagrass: 40
bermuda-grass; [13]
  Plant response rating, Bermudagrass: 60
bermuda-grass; [14]
  Plant response rating, Bermudagrass: 85
bermuda-grass; [15]
  Plant response rating, Bermudagrass: 100
Common ragweed; [12]
  Plant response rating, C. ragweed: 0
Common ragweed; [13]
  Plant response rating, C. ragweed: 0
Common ragweed; [14]
  Plant response rating, C. ragweed: 0
Common ragweed; [15]
  Plant response rating, C. ragweed: 0
Winter wheat [1]; [16]
  Plant response rating, Wheat (winter): 55
Winter wheat [1]; [17]
  Plant response rating, Wheat (winter): 65
blackgrass; Rate 250 g/ha, 0 to 100 scale
  Plant response rating, Blackgrass: 10
blackgrass; [18]
  Plant response rating, Blackgrass: 25
blackgrass; [19]
  Plant response rating, Blackgrass: 85
Green foxtail; Rate 250 g/ha, 0 to 100 scale
  Plant response rating, Green foxtail: 30
Green foxtail; [18]
  Plant response rating, Green foxtail: 50
Green foxtail; [19]
  Plant response rating, Green foxtail: 70
Italian ryegrass; Rate 250 g/ha, 0 to 100 scale
  Plant response rating, I. Ryegrass: 40
Italian ryegrass; [18]
  Plant response rating, I. Ryegrass: 60
Italian ryegrass; [19]
  Plant response rating, I. Ryegrass: 70
Winter wheat [2]; Rate 250 g/ha, 0 to 100 scale
  Plant response rating, Wheat (winter): 0
Winter wheat [2]; [18]
  Plant response rating, Wheat (winter): 10
Winter wheat [2]; [19]
  Plant response rating, Wheat (winter): 20
Wild oat; Rate 500 g/ha
  Plant response rating, Wild oat: 40
Wild oat; Rate 1000 g/ha
  Plant response rating, Wild oat: 50
Winter barley; Rate 250 g/ha, 0 to 100 scale
  Plant response rating, Barley (winter): 20
Winter barley; [18]
  Plant response rating, Barley (winter): 30
Winter barley; [19]
  Plant response rating, Barley (winter): 50

From patent US6737383B1, “Herbicidal oxadiazolidines” (priority 1999, dated 2004)
